Experimental data taken from publication PMC10584170, “Machine learning-based phenotypic imaging to characterise the targetable biology of Plasmodium falciparum male gametocytes for the development of transmission-blocking antimalarials” (PLOS Pathogens, 2023).

Experiments:
[1] = tested on: P. falciparum male gametocytes; assay: P. falciparum Dual Gamete Formation Assay (PfDGFA), male readout (exflagellation); format: cell-based, Plasmodium falciparum NF54; conditions: for Average inhibition male (%): average of replicates; for % inhibition male (individual replicates) R1: replicate R1; for % inhibition male (individual replicates) R3: replicate R3; for % inhibition male (individual replicates) R4: replicate R4; for HitlevelM: hits selected on >50% inhibition in the male readout across replicates; for Activity: hit = >50% inhibition in male or female readout in at least 3 replicates, 0 = no class assigned
Summary of the method: (§1)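 Mature NF54 gametocytes (day 14) were incubated with compound for 24 h at 37°C under 1% O2/3% CO2, then triggered with xanthurenic acid ookinete medium plus Cy3-anti-Pfs25. Exflagellation was imaged by brightfield; after a further 24 h at 28°C, Pfs25-positive female gametes were imaged by fluorescence and counted by automated image analysis.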

[2] = tested on: P. falciparum female gametocytes; assay: P. falciparum Dual Gamete Formation Assay (PfDGFA), female readout (Pfs25-positive female gametes); format: cell-based, Plasmodium falciparum NF54; conditions: for Average inhibition female (%): average of replicates; for % inhibition female (individual replicates) R1: replicate R1; for % inhibition female (individual replicates) R3: replicate R3; for % inhibition female (individual replicates) R4: replicate R4; for HitlevelF: hits selected on >50% inhibition in the female readout across replicates
Summary of the method: as §1

[3] = 2µM, 24h preincubation with gametocytes prior to induction of gametogenesis
[4] = PfDGFA at 2µM, 24h preincubation
[5] = PfDGFA at 2µM, 24h preincubation with gametocytes prior to induction of gametogenesis

| Structure (SMILES) | Average inhibition male (%) [1, 3] [%] | % inhibition male (individual replicates) R1 [1, 3] [%] | % inhibition male (individual replicates) R3 [1, 3] [%] | % inhibition male (individual replicates) R4 [1, 3] [%] | HitlevelM ([1]; 2µM, 24h preincubation) | Activity [1, 4] | Average inhibition female (%) [2, 3] [%] | % inhibition female (individual replicates) R1 [2, 3] [%] | % inhibition female (individual replicates) R3 [2, 3] [%] | % inhibition female (individual replicates) R4 [2, 3] [%] | HitlevelF ([2]; 2µM, 24h preincubation) | % inhibition male (individual replicates) R1 [1, 5] [%] | % inhibition male (individual replicates) R3 [1, 5] [%] | % inhibition male (individual replicates) R4 [1, 5] [%] | Average inhibition male (%) [1, 4] [%] | % inhibition female (individual replicates) R1 [2, 5] [%] | % inhibition female (individual replicates) R3 [2, 5] [%] | % inhibition female (individual replicates) R4 [2, 5] [%] | Average inhibition female (%) [2, 4] [%] |
| --- | --- | --- | --- | --- | --- | --- | --- | --- | --- | --- | --- | --- | --- | --- | --- | --- | --- | --- | --- |
| COc1cc(C(=O)N2CCN(C(C)C)CC2)ccc1CN(C)CCCCN1CCN(c2cccc(Cl)c2Cl)CC1.Cl [TCMDC-136506] | 24.1 | 21.0 | -5.5 | 30.9 | 1 | 0 | 13.2 | 17.9 | 17.6 | 12.7 | 0 |  |  |  |  |  |  |  |  |
| CN(C)Cc1c(O)ccc2[nH]c(-c3cccc(F)c3)nc12 [TCMDC-136535] |  |  |  |  |  |  |  |  |  |  |  | -6.0 | -26.3 | 8.9 | -3.8 | 14.3 | -20.0 | -2.1 | -3.2 |
| C[C@@H](CNc1ccnc(Nc2ccc3[nH]c(=O)[nH]c3c2)n1)c1ccccc1 [TCMDC-136803] |  |  |  |  |  |  |  |  |  |  |  | -12.9 |  | -10.1 | -9.4 | 0.6 | -4.3 | 9.5 | 0.458 |
| Cc1cc(N2CCCN(CC3CCCCC3)CC2)nc(Nc2ccc(Br)cc2)n1 [TCMDC-137133] | -4.7 | -4.0 | -2.0 | -6.5 | 0 | 0 | 14.4 | 13.7 | 2.2 | 35.3 | 0 |  |  |  |  |  |  |  |  |
| CCOc1cc(Cc2cnc(N)nc2N)cc(OCC)c1O [TCMDC-137181] |  |  |  |  |  |  |  |  |  |  |  | 23.6 | 21.9 | 11.2 | 22.7 | -0.02 | 1.9 | -15.6 | -3.9 |
| CNC(=O)C(NC(=O)c1ccccc1C(=O)OC)c1ccccc1 (centres unmarked) [TCMDC-137226] |  |  |  |  |  |  |  |  |  |  |  | 12.9 | -28.2 | -18.5 | -3.7 | 18.3 | -7.8 | -6.5 | 2.2 |
| COc1cc(Cc2cnc(N)nc2N)cc(OCCCCC2SC(=O)NC2=O)c1Br (centres unmarked) [TCMDC-137240] |  |  |  |  |  |  |  |  |  |  |  | 22.0 | 3.4 | -19.8 | 3.4 | 12.9 | 1.7 | -5.0 | 2.6 |
| Cc1nc2nc(N)nc(N)c2c(C)c1Cc1ccccc1Br.Cl [TCMDC-137242] |  |  |  |  |  |  |  |  |  |  |  | 34.5 | 1.0 | -12.5 | 16.6 | 10.1 | -11.3 | 2.1 | -2.4 |
| Cc1c(Cc2ccccc2Br)cnc2nc(N)nc(N)c12.Cl [TCMDC-137244] |  |  |  |  |  |  |  |  |  |  |  | 13.7 | 18.7 | 3.9 | 10.5 | 1.3 | -18.4 | -3.4 | -6.0 |
| CCC(CC)n1c(C)cc2c3c(N)nc(N)nc3ccc21 [TCMDC-137283] | 25.7 | 19.3 | 21.9 | 21.2 | 0 | 0 | 4.2 | -6.1 | 8.3 | 19.7 | 0 |  |  |  |  |  |  |  |  |
| CCCc1cc(Cc2cnc(N)nc2N)cc(CCC)c1OCCCCC(=O)O [TCMDC-137293] | -0.757 | 18.6 | 1.6 | -35.8 | 0 | 0 | 8.1 | 3.0 | -4.5 | 42.6 | 0 |  |  |  |  |  |  |  |  |
| CCN(CC)S(=O)(=O)n1ncc2c3c(N)nc(N)nc3ccc21.Cl [TCMDC-137302] |  |  |  |  |  |  |  |  |  |  |  | 16.7 | -8.5 | -41.8 | 0.1 | 5.9 | -12.1 | -12.9 | -8.3 |
